These results are taken from patent publication US12729192B2, “CDK9 inhibitor and use thereof” (PHARMABLOCK SCIENCES (NANJING), INC., priority 2020, dated 2026).

In test [1] the target is CDK9 (Homo sapiens, UniProt P50750). Put plainly: CDK9 kinase activity inhibition (ADP-Glo). In kind it is biochemical. The settings on record: 10 μM ATP, 2 h at room temperature. Background: ADP-Glo first removes unused ATP, then detects ADP through luciferase.
In test [2] the test system is MOLM-13 cells. Put plainly: Tumor cell proliferation inhibition experiment (CellTiter-Glo). In kind it is cell-based. As to conditions: Homo sapiens; acute myeloid leukemia cell line MOLM-13; 16 h incubation; CellTiter-Glo; read-out: MOLM-13 (nM) IC50, cell proliferation inhibition. From the text: An acute myeloid leukemia (AML) cell line (MOLM-13) was purchased from NANJING COBIOER BIOSCIENCES CO., LTD. An RPMI1640 medium and a penicillin-streptomycin double-antibody were purchased from ThermoFisher (Waltham, MA, USA). Certified fetal bovine serum (FBS) was purchased from Biological Industries (Israel). A Corning 384-well cell culture plate was purchased from CORNING (USA). Cell-Titer Glo® was purchased from Promega Corporation (Madison, WI, USA).
To evaluate the ability of the synthetic compound to inhibit the proliferation of MOLM-13 cells, MOLM-13 cells at an exponential growth stage were inoculated at a density of 500,000 cell/mL in the RPMI1640 medium containing 20% bovine serum and 1% penicillin-streptomycin double-antibody, and the 384-well plate contained 20 μL per well and placed overnight in an 37° C., 5% CO2 incubator. Compound powder was dissolved in DMSO to prepare a storage mother liquor with a concentration of 2 mM, and 12 dilutions with three-fold gradient concentrations were further prepared. 1 μL of gradient-diluted DMSO solution was added to 99 μL of cell culture medium (the final maximum concentration of the compound in the assay was 10 uM and the final concentration of DMSO was 0.5%). 20 μL of compound solution in the medium was added at gradients to each cell-coated test well of the 384-well plate. After the compound solution was added, the 384-well plate was incubated for 16 h in a 37° C., 5% CO2 incubator. Cell viability was determined by quantifying ATPs present in test wells using the CellTiter-Glo kit from Promega (Madison, WI, USA). After 20 minutes of incubation, readings were obtained under a chemical luminescence procedure using Tecan's Spark multifunctional plate reader. The concentration (IC50 value) of the compound at which the cell survival rate was inhibited by 50% was determined using an S-shaped dosage response model (variable slope, four parameters) in Prism 7 (LaJolla, CA).
Background: In ATP-based viability assays light output follows the ATP content of the culture.

The target in test [3] is T1, CDK1 (Homo sapiens, UniProt P06493).
T1 construct: purchased Carna Biosciences, Inc
Put plainly: CDK1 kinase activity inhibition (ADP-Glo). In kind it is biochemical. As to conditions: 50 μM ATP, 2 h at room temperature. The method, then:
CDK9 kinase was manufactured by the company or commercially available. CDK1, CDK2 and CDK7 were purchased from Carna Biosciences, Inc. ADP-Glo™ kit was purchased from Promega Corporation. Dithiothreitol (DTT), Tween-20, dimethylsulfoxide (DMSO), bovine serum albumin (BSA) and Tris base were obtained from Sigma at the available highest level of purity.
General procedures for CDK inhibition determination: The determination was performed in a buffer consisting of 50 μM DTT, 0.1% BSA, 40 mM Tris-HCl pH=7.5 and 20 mM MgCl2. The compound dissolved in DMSO and CDK enzymes were diluted with the buffer. 1 μL of the compound solution in 5% DMSO and 2 μL of the CDK enzyme solution were added to a white low-volume 384-well microtiter plate and incubated for 20 min at room temperature. Ultra pure ATP and the substrate polypeptide (purchased from GenScript Biotech Corporation) were diluted together into the buffer and added to a mixed solution of the compound and the enzyme, 2 μL per well. They were incubated for 2 h at room temperature.
After the reaction was completed, 5 μL of ADP-Glo™ reagent was added to each well and incubated for 40 min at room temperature, and then 10 μL of test reagent was added to each well and incubated for 30 mi at room temperature. Chemical luminescence values were measured by using a Tecan (Männedorf, Switzerland) multifunctional plate reader Spark for plate reading. The IC50 value of the inhibitor was obtained by fitting the chemical luminescence intensity ratio in the S-shaped dosage reaction curve using Prism 7 (La Jolla, 15 CA) relative to the concentration of the inhibitor.

Test [4] concerns the target T2, CDK7 (Homo sapiens, UniProt P50613).
T2 construct: purchased Carna Biosciences, Inc
Nature of the test: CDK7 kinase activity inhibition (ADP-Glo). In kind it is biochemical. As to conditions: 10 μM ATP, 2 h at room temperature.

For test [5], the target named is T3, CDK2 (Homo sapiens, UniProt P24941).
T3 construct: purchased Carna Biosciences, Inc
Put plainly: CDK2 kinase activity inhibition (ADP-Glo). In kind it is biochemical. The settings on record: 10 μM ATP, 2 h at room temperature.

Each structure is given as a SMILES string.

Sequence of CDK9 (P50750 whole entry): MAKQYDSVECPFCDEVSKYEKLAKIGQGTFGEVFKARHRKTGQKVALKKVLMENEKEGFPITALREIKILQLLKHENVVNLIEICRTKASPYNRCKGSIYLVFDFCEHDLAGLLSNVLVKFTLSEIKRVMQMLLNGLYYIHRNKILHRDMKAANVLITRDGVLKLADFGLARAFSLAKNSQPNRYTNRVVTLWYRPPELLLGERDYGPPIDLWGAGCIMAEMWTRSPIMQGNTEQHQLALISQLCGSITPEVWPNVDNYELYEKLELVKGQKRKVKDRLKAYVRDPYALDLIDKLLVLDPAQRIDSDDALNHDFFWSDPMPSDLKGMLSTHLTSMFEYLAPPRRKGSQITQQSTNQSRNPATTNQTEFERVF
Sequence of CDK9 (O60563 whole entry partner): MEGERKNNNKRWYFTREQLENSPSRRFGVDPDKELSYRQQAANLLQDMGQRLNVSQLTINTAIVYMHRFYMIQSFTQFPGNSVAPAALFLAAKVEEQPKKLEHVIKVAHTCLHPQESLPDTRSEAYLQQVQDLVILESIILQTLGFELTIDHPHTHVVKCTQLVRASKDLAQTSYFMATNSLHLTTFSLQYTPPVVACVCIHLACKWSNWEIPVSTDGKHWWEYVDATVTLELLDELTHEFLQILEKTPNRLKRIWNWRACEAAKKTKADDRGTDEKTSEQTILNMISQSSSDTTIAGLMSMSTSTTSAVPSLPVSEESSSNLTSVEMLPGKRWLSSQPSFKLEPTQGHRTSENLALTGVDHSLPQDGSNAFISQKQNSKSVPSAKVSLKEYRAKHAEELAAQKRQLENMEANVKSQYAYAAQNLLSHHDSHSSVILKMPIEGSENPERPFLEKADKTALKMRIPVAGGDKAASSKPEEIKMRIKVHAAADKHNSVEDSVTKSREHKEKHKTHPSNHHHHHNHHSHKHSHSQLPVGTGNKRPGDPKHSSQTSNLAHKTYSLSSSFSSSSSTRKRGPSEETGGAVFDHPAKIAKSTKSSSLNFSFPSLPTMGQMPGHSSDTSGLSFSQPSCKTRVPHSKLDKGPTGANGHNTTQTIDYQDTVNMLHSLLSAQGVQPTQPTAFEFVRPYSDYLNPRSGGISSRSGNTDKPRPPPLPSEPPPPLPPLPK
T2 sequence (P50613 whole entry): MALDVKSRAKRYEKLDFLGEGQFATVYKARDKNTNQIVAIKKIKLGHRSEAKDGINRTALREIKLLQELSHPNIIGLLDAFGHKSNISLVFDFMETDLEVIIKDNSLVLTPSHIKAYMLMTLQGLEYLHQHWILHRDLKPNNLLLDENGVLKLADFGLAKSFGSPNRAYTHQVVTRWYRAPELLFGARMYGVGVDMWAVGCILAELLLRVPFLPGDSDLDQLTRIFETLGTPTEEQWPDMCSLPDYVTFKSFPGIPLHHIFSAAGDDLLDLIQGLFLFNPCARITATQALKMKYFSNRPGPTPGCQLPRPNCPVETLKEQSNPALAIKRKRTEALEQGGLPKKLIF
T2 sequence (P51946 whole entry partner): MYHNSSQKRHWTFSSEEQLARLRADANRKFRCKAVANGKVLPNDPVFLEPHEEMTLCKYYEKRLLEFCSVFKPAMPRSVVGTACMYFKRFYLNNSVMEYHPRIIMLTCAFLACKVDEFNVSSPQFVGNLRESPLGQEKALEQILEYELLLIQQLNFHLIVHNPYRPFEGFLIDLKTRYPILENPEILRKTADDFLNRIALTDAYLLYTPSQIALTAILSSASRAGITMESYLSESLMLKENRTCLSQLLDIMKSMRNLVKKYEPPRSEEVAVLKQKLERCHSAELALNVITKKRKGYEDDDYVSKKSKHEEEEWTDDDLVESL
T2 sequence (P51948 whole entry partner): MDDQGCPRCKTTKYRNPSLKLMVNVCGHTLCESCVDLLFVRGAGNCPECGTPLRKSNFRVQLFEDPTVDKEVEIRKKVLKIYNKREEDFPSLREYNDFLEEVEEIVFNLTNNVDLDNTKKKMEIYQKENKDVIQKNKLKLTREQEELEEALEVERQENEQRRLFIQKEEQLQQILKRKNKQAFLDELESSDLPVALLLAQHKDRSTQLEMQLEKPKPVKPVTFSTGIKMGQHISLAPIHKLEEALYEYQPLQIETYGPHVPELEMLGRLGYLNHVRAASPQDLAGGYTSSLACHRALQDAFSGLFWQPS
T1 sequence (P06493 whole entry): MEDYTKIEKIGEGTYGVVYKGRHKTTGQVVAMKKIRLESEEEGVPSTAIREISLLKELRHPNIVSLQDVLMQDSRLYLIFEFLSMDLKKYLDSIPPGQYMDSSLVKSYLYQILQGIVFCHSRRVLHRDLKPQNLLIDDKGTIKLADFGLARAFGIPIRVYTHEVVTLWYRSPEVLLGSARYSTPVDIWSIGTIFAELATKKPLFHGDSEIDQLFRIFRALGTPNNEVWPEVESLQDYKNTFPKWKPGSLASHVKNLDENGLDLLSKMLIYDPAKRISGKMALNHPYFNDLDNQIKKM
T1 sequence (P14635 whole entry partner): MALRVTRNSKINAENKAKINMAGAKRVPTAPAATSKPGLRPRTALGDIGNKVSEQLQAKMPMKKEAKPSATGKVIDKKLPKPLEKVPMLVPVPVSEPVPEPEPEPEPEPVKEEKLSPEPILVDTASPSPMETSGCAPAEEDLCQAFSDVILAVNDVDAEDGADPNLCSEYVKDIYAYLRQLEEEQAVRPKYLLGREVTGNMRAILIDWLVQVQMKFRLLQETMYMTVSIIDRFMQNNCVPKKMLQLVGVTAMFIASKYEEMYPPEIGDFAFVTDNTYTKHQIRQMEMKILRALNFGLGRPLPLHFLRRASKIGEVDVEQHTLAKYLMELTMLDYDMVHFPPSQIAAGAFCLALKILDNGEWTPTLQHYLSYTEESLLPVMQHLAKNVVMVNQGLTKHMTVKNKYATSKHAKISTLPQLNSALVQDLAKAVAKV

As for `CC(=O)NC[C@H]1CCC(F)(F)CN1C(=O)c1nc(Nc2cc(C(F)(F)F)ccn2)ccc1C` [Compound 30, (R)—N-((5,5-difluoro-1-(3-methyl-6-((4-(trifluoromethyl)pyridin-2-yl)amino)pyridine-2-carbonyl)piperidin-2-yl)methyl)acetamide], the IC50 in test [1] was found to be 11.7 nM; in test [2], 11.3 nM; in test [3], 291 nM; in test [4], 3180 nM; in test [5], 99.3 nM.

`Cc1ccc(Nc2cc(OC(F)(F)F)ccn2)nc1C(=O)N1CC(F)(F)CC[C@@H]1CN` [Compound 34, (R)-(2-(aminomethyl)-5,5-difluoropiperidin-1-yl)(3-methyl-6-((4-(trifluoromethoxy)pyridin-2-yl)amino)pyridin-2-yl)methanone]: the IC50 in test [1] stood at 3 nM; in test [2] it was 63.1 nM; in test [3], 261 nM; in test [4] it was 479 nM; in test [5], 30 nM.

`NC[C@H]1CCC(F)(F)CN1C(=O)c1nc(Nc2cc(OC(F)(F)F)ccn2)ccc1F` [Compound 67, (R)-(2-(aminomethyl)-5,5-difluoropiperidin-1-yl)(3-fluoro-6-((4-(trifluoromethoxy)pyridin-2-yl)amino)pyridin-2-yl)methanone]: the IC50 in test [1] stood at 6.8 nM; in test [2], 66.8 nM; in test [3] it was 140 nM; in test [4] it was 656 nM; in test [5], 61.2 nM.
